Measurements: ChEMBL document CHEMBL4145540 (Eur J Med Chem, 2018)
Activity calls are given as the source filed them. The rule behind the calls is not given here.

Key:
HT-29 = experiment: Antiproliferative activity against human HT-29 cells after 2 days by MTT assay; type: functional, cell-based; settings: HT-29, 48 h
MCF7 = experiment: Antiproliferative activity against human MCF7 cells after 2 days by MTT assay; type: functional, cell-based; settings: MCF7, 48 h
HeLa = experiment: Antiproliferative activity against human HeLa cells after 2 days by MTT assay; type: functional, cell-based; settings: 48 h
A549 [1] = experiment: Antiproliferative activity against human A549 cells after 2 days by MTT assay; type: functional, cell-based; settings: A549, 48 h
HL-60 = experiment: Antiproliferative activity against human HL60 cells after 2 days by MTT assay; type: functional, cell-based; settings: HL-60, 48 h
HMEC-1 = experiment: Antiproliferative activity against HMEC1 cells after 2 days by MTT assay; type: functional, cell-based; settings: Homo sapiens, HMEC-1, 48 h
HEK293 = experiment: Antiproliferative activity against HEK293 cells after 2 days by MTT assay; type: cell-based; settings: Homo sapiens, HEK293, 48 h
MDA-MB-231 = experiment: Antiproliferative activity against human MDA-MB-231 cells after 3 days by coulter counting method; type: functional, cell-based; settings: MDA-MB-231, 72 h
Bos taurus = organism: Bos taurus; experiment: Inhibition of calf brain tubulin polymerization after 60 mins by turbidimetric method
A549 [2] = experiment: Cell cycle arrest in human A549 cells assessed as accumulation at sub-G0 phase at 45 nM after 20 hrs by propidium iodide staining based flow cytometry (reference value: 6.6 +/- 0.1%); type: functional
A549 [3] = experiment: Cell cycle arrest in human A549 cells assessed as accumulation at G0/G1 phase at 45 nM after 20 hrs by propidium iodide staining based flow cytometry (reference value: 66 +/- 1%); type: functional
A549 [4] = experiment: Cell cycle arrest in human A549 cells assessed as accumulation at S phase at 45 nM after 20 hrs by propidium iodide staining based flow cytometry (reference value: 16 +/- 1%); type: functional
A549 [5] = experiment: Cell cycle arrest in human A549 cells assessed as accumulation at G2/M phase at 45 nM after 20 hrs by propidium iodide staining based flow cytometry (reference value: 11 +/- 1%); type: functional
A549 [6] = experiment: Induction of apoptosis in human A549 cells at 100 nM after 24 hrs by Annexin V-FITC/propidium iodide staining based flow cytometry (reference value: 28%); type: functional
A549 [7] = experiment: Induction of apoptosis in human A549 cells at 10 nM after 24 hrs by Annexin V-FITC/propidium iodide staining based flow cytometry (reference value: 28%); type: functional
A549 [8] = experiment: Induction of apoptosis in human A549 cells after 24 hrs by Annexin V-FITC/propidium iodide staining based flow cytometry; type: functional, cell-based
A549 [9] = experiment: Cell cycle arrest in human A549 cells assessed as accumulation at sub-G0 phase at 650 nM after 20 hrs by propidium iodide staining based flow cytometry (reference value: 6.6 +/- 0.1%); type: functional
A549 [10] = experiment: Cell cycle arrest in human A549 cells assessed as accumulation at G0/G1 phase at 650 nM after 20 hrs by propidium iodide staining based flow cytometry (reference value: 66 +/- 1%); type: functional
A549 [11] = experiment: Cell cycle arrest in human A549 cells assessed as accumulation at S phase at 650 nM after 20 hrs by propidium iodide staining based flow cytometry (reference value: 16 +/- 1%); type: functional
A549 [12] = experiment: Cell cycle arrest in human A549 cells assessed as accumulation at G2/M phase at 650 nM after 20 hrs by propidium iodide staining based flow cytometry (reference value: 11 +/- 1%); type: functional
A549 [13] = experiment: Cell cycle arrest in human A549 cells assessed as accumulation at sub-G0 phase at 70 nM after 20 hrs by propidium iodide staining based flow cytometry (reference value: 6.6 +/- 0.1%); type: functional
A549 [14] = experiment: Cell cycle arrest in human A549 cells assessed as accumulation at G0/G1 phase at 70 nM after 20 hrs by propidium iodide staining based flow cytometry (reference value: 66 +/- 1%); type: functional
A549 [15] = experiment: Cell cycle arrest in human A549 cells assessed as accumulation at S phase at 70 nM after 20 hrs by propidium iodide staining based flow cytometry (reference value: 16 +/- 1%); type: functional
A549 [16] = experiment: Cell cycle arrest in human A549 cells assessed as accumulation at G2/M phase at 70 nM after 20 hrs by propidium iodide staining based flow cytometry (reference value: 11 +/- 1%); type: functional

| IC50 (HT-29) [nM] | IC50 (MCF7) [nM] | IC50 (HeLa) [nM] | IC50 (A549 [1]) [nM] | IC50 (HL-60) [nM] | IC50 (MDA-MB-231) [nM] | SMILES | IC50 (HMEC-1) [nM] | IC50 (HEK293) [nM] | further results |
| --- | --- | --- | --- | --- | --- | --- | --- | --- | --- |
| 23 | 6.1 | 3.7 | 90 | 1.8 | 13.7 | COc1ccc(/C=C\c2cc(OC)c(OC)c(OC)c2)cc1NC(=O)Oc1ccc(C)c(Cl)c1 | 6 | 7 | inhibition (Bos taurus): Active; Activity (A549 [2]): 29%; Activity (A549 [3]): 21%; Activity (A549 [4]): 14%; Activity (A549 [5]): 36%; Activity (A549 [6]): 46%; Activity (A549 [7]): 23%; Activity (A549 [8]): Dose-dependent effect |
| 130 | 170 | 21 | 1300 | 69 | 41 | COc1ccc(/C=C\c2cc(OC)c(OC)c(OC)c2)cc1NC(=O)Oc1ccc(C)c(C)c1 | 130 | 97 | Activity (A549 [9]): 17%; Activity (A549 [10]): 24%; Activity (A549 [11]): 19%; Activity (A549 [12]): 41% |
| 47 | 39 | 23 | 140 | 70 | 14 | COc1ccc(/C=C\c2cc(OC)c(OC)c(OC)c2)cc1NC(=O)Oc1cccc(Cl)c1C | 20 | 14 | Activity (A549 [13]): 20%; Activity (A549 [14]): 24%; Activity (A549 [15]): 18%; Activity (A549 [16]): 39% |
